Test results as given in patent publication US6358883B1, “Pesticidal and parasiticidal use of 1-aryl-1-(substituted thio, sulfinyl and sulfonyl)-2-nitroethane compounds” (American Cyanamid Company, priority 1998, dated 2002).

What was measured:
Type in all cases: in vivo
[1] = test system: Tetranychus urticae (OP-resistant strain), 2-spotted spider mite (TSM); assay: 2-spotted spider mite (TSM) plant dip test; set-up: key: 0 = no effect; 1 = 10-25% kill; 2 = 26-35% kill; 3 = 36-45% kill; 4 = 46-55% kill; 5 = 56-65% kill; 6 = 66-75% kill; 7 = 76-85% kill; 8 = 86-99% kill; 9 = 100% kill; conditions: mortality after 2 days
Protocol: (§1) Test solutions are prepared by dissolving the test compound in a 35% acetone in water mixture to give a concentration of 10,000 ppm. Subsequent dilutions are made with water as needed.
Tetranychus urticae (OP-resistant strain), 2-spotted Spider Mite (TSM)
Sieva lima bean plants with primary leaves expanded to 7-8 cm are selected and cut back to one plant per pot. A small piece is cut from an infested leaf taken from the main colony and placed on each leaf of the test plants. This is done about 2 hours before treatment to allow the mites to move over to the test plant to lay eggs. The size of the cut, infested leaf is varied to obtain about 100 mites per leaf. At the time of test treatment, the piece of leaf used to transfer the mites is removed and discarded. The newly-infested plants are dipped in the test solution for 3 seconds with agitation and set in the hood to dry. After 2 days, one leaf is removed and mortality counts are made.

[2] = test system: M. incognita (Root Knot Nematode) larvae; assay: Evaluation of test compounds against M. incognita larvae in microtiter plate wells (movement score); conditions: larvae scored for movement after 20-24 hours; also: key: A score of '9' indicates inactive worms with a straight, sticklike morphology; A score of '8' indicates inactive worms with a limp, curled or curved morphology; A score of '7' indicates dead/paralyzed worms after 72 hours
Protocol: Evaluation of Test Compounds Against M. incognita (Root Knot Nematode)
Newly emerged M. incognita larvae are suspended in S Medium (buffered salt solution) to a concentration of 50-65 worms per 50 μl. 50 μl of the worm suspension are pipetted into microtiter plate wells containing the test compounds. The plates are then covered with plactic plate sealers to reduce loss of volume by evaporation. After 20-24 hours of incubation, the larvae are scored for movement. Wells containing obviously dead/paralyzed larvae are scored as positive. […] A score of “7” indicates dead/paralyzed worms after […].

[3] = test system: Spodoptera eridania, 2nd instar larvae, southern armyworm (SAW); assay: Southern armyworm (SAW) leaf dip test; set-up: key: 0 = no effect; 1 = 10-25% kill; 2 = 26-35% kill; 3 = 36-45% kill; 4 = 46-55% kill; 5 = 56-65% kill; 6 = 66-75% kill; 7 = 76-85% kill; 8 = 86-99% kill; 9 = 100% kill
Protocol: as §1
Spodoptera eridania, 2nd Instar Larvae, Southern Armyworm (SAW)
A Sieva lima bean leaf expanded to 7-8 cm in length is dipped in the test solution with agitation for 3 seconds and allowed to dry in a hood. The leaf is then placed in a 100×10 mm petri dish containing a damp filter paper on the bottom and ten 2nd instar caterpillars. At 5 days, observations are made of mortality, reduced feeding, or any interference with normal molting.

[4] = test system: Spodoptera eridania, eggs-southern armyworm (SAW-Eggs); assay: Southern armyworm eggs (SAW-Eggs) treated diet test; set-up: key: 0 = no effect; 1 = 10-25% kill; 2 = 26-35% kill; 3 = 36-45% kill; 4 = 46-55% kill; 5 = 56-65% kill; 6 = 66-75% kill; 7 = 76-85% kill; 8 = 86-99% kill; 9 = 100% kill; conditions: mortality after 7 days
Protocol: (§2) Test solutions are prepared by dissolving the test compound in a 35% acetone in water mixture to give a concentration of 10,000 ppm. Subsequent dilutions are made with water as needed. Spodoptera eridania, Eggs-southern Armyworm and Diabrotica undecimpunctata howardi, Eggs-southern Corn Rootworm (SAW-Eggs) and (SCR-Eggs) Wells containing artificial diet are treated with the test solutions and dried. The appropriate insect eggs are then placed in the wells. The wells are covered with vented, adhesive, clear plastic covers. After 7 days, mortality counts are made. [table]

[5] = test system: C. elegans (Bristol strain); assay: Evaluation of test compounds against C. elegans (motility, 96-well plate); set-up: key: 9=complete kill in 4 hours; 8=complete kill in 24 hours; 7=markedly reduced motility in approximately 95% of worms in 24 hours; 0=normal motility, same as controls; conditions: motility at 4 and 24 hours
Protocol: Evaluation of Test Compounds Against C. elegans Cultures of C. elegans (Bristol strain from J. Lewis) are maintained on E. coli lawns on NG Agar Plates at 20° C. New cultures are established weekly. Nematodes for testing are washed from cultures using Na buffer. Compounds are dissolved in 80% acetone. The test material is micropipetted (25 μl) into a single well of a 96-well sterile tissue culture plate and the solvent allowed to evaporate. A freshly prepared volume (50 μl) of C. elegans in Na buffer is micropipetted into each treated well and several control wells per plate. Plates are incubated at 20° C. Observations for efficacy are made under a dissecting microscope at 4 and 24 hours post-immersion. Immediately prior to reading the plate, it is gently tapped to stimulate the movement of the worms. Activity is judged subjectively, but semi-quantitatively, based on the drug effects on motility of the adults and larvae.

[6] = test system: Diabrotica virgifera virgifera Leconte, 2nd instar western corn rootworm (WCR); assay: Western corn rootworm (WCR) soil test; set-up: key: 0 = no effect; 1 = 10-25% kill; 2 = 26-35% kill; 3 = 36-45% kill; 4 = 46-55% kill; 5 = 56-65% kill; 6 = 66-75% kill; 7 = 76-85% kill; 8 = 86-99% kill; 9 = 100% kill
Protocol: Test solutions are prepared by dissolving the test compound in a 35% acetone in water mixture to give a concentration of 10,000 ppm. Subsequent dilutions are made with water as needed. Diabrotica virgifera virgifera Leconte, 2nd Instar Western Corn Rootworm (WCR) One cc of fine talc is placed in a 30 mL wide-mouth screw-top glass jar. One mL of the appropriate acetone test solution is pipetted onto the talc so as to provide 1.25 mg of active ingredient per jar. The jars are set under a gentle air flow until the acetone is evaporated. The dried talc is loosened, 1 cc of millet seed is added to serve as food for the insects and 25 mL of moist soil is added to each jar. The jar is capped and the contents thoroughly mixed mechanically. Following this, ten 2nd instar rootworms are added to each jar and the jars are loosely capped to allow air exchange for the larvae. The treatments are held for 5 days when mortality counts are made. Missing larvae are presumed dead, since they decompose rapidly and cannot be found. The concentrations of active ingredient used in this test correspond approximately to 50 kg/ha. [table]

[7] = test system: Aphis gossypii, cotton aphid (CA); assay: Cotton aphid (CA) cotyledon dip test; set-up: key: 0 = no effect; 1 = 10-25% kill; 2 = 26-35% kill; 3 = 36-45% kill; 4 = 46-55% kill; 5 = 56-65% kill; 6 = 66-75% kill; 7 = 76-85% kill; 8 = 86-99% kill; 9 = 100% kill; conditions: mortality after 5 days
Protocol: Test solutions are prepared by dissolving the test compound in a 35% acetone in water mixture to give a concentration of 10,000 ppm. Subsequent dilutions are made with water as needed. Aphis gossypii, Cotton Aphid (CA) Cotton plants at the cotyledon stage are selected and cut back to one plant per pot. A heavily infested leaf is taken from the main colony and placed on top of each cotyledon. The aphids are allowed to transfer to the host plant overnight. At the time of test treatment, the leaf used to transfer the aphids is removed and discarded. The cotyledons are dipped in the test solution and allowed to dry. After 5 days, mortality counts are made. [table]

[8] = test system: Diabrotica undecimpunctata howardi, eggs-southern corn rootworm (SCR-Eggs); assay: Southern corn rootworm eggs (SCR-Eggs) treated diet test; set-up: key: 0 = no effect; 1 = 10-25% kill; 2 = 26-35% kill; 3 = 36-45% kill; 4 = 46-55% kill; 5 = 56-65% kill; 6 = 66-75% kill; 7 = 76-85% kill; 8 = 86-99% kill; 9 = 100% kill; conditions: mortality after 7 days
Protocol: as §2

SMILES	TSM (300 ppm) rating [1]	M. incognita (150 ppm) score [2]	SAW (300 ppm) rating [3]	SAW Eggs (300 ppm) rating [4]	Rating Against C. elegans (150 ppm) [5]	WCR (50 ppm) rating [6]	CA (300 ppm) rating [7]	SCR Eggs (1000 ppm) rating [8]
CCOC(=O)CSC(C[N+](=O)[O-])c1ccccc1 (stereo not shown) [Example 6]	0	9	0	0	8	7 (7 = 76-85% kill)	0	
CCCCC(CC)COC(=O)CSC(C[N+](=O)[O-])c1ccccc1 (stereo not shown) [Example 9]	0	0	0	0	0	4 (4 = 46-55% kill)	0	
CCCSC(C[N+](=O)[O-])c1ccc(F)cc1 (stereo not shown) [Example 14]	0	0	0	0	0	0	0	
CCCCOC(=O)CSC(C[N+](=O)[O-])c1ccc(F)cc1 (stereo not shown) [Example 17]	5 (5 = 56-65% kill)	9	0	0	8	0	0	
CCCCC(CC)COC(=O)CSC(C[N+](=O)[O-])c1ccc(F)cc1 (stereo not shown) [Example 12]	0	0	0	0	0	0	0	
CCCCOC(=O)CSC(C[N+](=O)[O-])c1ccccc1 (stereo not shown) [Example 7]	0	9	0	0	8	0	0	
CCCCC(CC)COC(=O)CSC(C[N+](=O)[O-])c1ccccc1Cl (racemic) [Example 92]	0	0	0		0	5 (5 = 56-65% kill)	0	0
CCCSC(C[N+](=O)[O-])c1ccccc1Cl (racemic) [Example 94]	0	0	0		0	0	0	0
O=C(O)CSC(C[N+](=O)[O-])c1ccccc1Cl (racemic) [Example 96]	0	9	0		9	0	0	0
O=[N+]([O-])CC(SCc1ccccc1)c1ccccc1Cl (racemic) [Example 93]	0	0	0		0	0	0	0
O=[N+]([O-])CC(SCc1ccccc1)c1ccccc1F (stereo not shown) [Example 44]	0	0	5 (5 = 56-65% kill)		7	4 (4 = 46-55% kill)	0	0
C=CCSC(C[N+](=O)[O-])c1ccccc1F (stereo not shown) [Example 46]	0	9	1 (1 = 10-25% kill)		7	9 (9 = 100% kill)	0	0
CCCSC(C[N+](=O)[O-])c1ccc(C(C)C)cc1 (stereo not shown) [Example 37]	0	0	0		0	0	0	0
CCCCC(CC)COC(=O)CSC(C[N+](=O)[O-])c1ccccc1F (stereo not shown) [Example 43]	0	0	4 (4 = 46-55% kill)		0	7 (7 = 76-85% kill)	0	9 (9 = 100% kill)
CCCSC(C[N+](=O)[O-])c1ccccc1F (stereo not shown) [Example 45]	0	0	0		0	8 (8 = 86-99% kill)	0	7 (7 = 76-85% kill)
CCOC(=O)CSC(C[N+](=O)[O-])c1ccccc1Cl (stereo not shown) [Example 89]	0	8	0		0	0	0	0
